These results are taken from US8673894B2 (Hoffmann-La Roche Inc., priority 2010, dated 2014).

Assay [1] concerns the target T1, endogenous cellular BACE2 (Rattus norvegicus, UniProt Q6IE75).
T1 construct: endogenous cellular BACE2 in the Ins1e rat cell line; endogenous in cells; host or cells: INS-TMEM27 (INS1e-derived rat insulinoma cell line with doxycycline-inducible full-length human TMEM27)
T1 sequence (Q6IE75 63-514): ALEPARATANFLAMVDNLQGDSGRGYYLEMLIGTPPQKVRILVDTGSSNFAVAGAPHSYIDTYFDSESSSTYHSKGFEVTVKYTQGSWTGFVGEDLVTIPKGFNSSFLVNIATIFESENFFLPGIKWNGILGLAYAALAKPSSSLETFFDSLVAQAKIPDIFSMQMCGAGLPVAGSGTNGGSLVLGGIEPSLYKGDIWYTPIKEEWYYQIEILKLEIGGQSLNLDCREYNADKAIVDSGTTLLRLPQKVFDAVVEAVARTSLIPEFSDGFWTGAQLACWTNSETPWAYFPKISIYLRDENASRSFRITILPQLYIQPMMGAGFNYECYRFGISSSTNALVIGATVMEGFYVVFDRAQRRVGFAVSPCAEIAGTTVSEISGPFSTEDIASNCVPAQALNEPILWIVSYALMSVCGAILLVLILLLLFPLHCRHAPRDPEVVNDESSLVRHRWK
Put plainly: Assay for BACE inhibition by measuring cellular TMEM27 cleavage. Type of assay: cell-based. The settings on record: INS-TMEM27 (INS1e-derived) cells, shed human TMEM27 in supernatant by ELISA. An outline of the steps:
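INS1e rat cells with doxycycline-inducible human TMEM27 get inhibitor 2 h before doxycycline (500 ng/ml final), then 46 h further at 37° C. Shed TMEM27 in the supernatant is measured by sandwich ELISA, and the EC50 comes from a curve fit of the ELISA signal.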
In general terms: In an ELISA, binding on a coated surface is turned into a signal by an enzyme label.

For a further assay, the system named is Aβ40. The experiment in a line: Cellular Aβ-lowering assay. Format: cell-based. The conditions noted are these: HEK293 cells stably expressing human APP695, Aβ40 in supernatant by ELISA after 18-20 hrs; read-out: Cellular assay Abeta40 IC50. The method, boiled down:
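HEK293 cells stably expressing human wild-type APP695 were treated with compound for 18-20 h at 37 °C in 0.8% v/v DMSO. Secreted Aβ40 in the supernatant was measured by sandwich ELISA (Aβ40 C-terminus-specific capture, HRP-4G8 detection, TMB read at 450 nm) and quantified against a pure Aβ peptide standard curve.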

Counter-ions that a name gives are not always drawn.

Consider `CC1(C)OCC(N)=N[C@](C)(c2cc(NC(=O)c3ccc(C#N)cn3)c(F)cc2F)C1(F)F` [Example 117, (R)-N-(5-(3-amino-6,6-difluoro-5,7,7-trimethyl-2,5,6,7-tetrahydro-1,4-oxazepin-5-yl)-2,4-difluorophenyl)-5-cyanopicolinamide], for which the IC50 (as a rule, the midpoint of a concentration-inhibition curve) came out at 30000 nM in assay [1] and 34 nM with Aβ40.
For `CC[C@]1(c2cc(NC(=O)c3ncc(Cl)cn3)ccc2F)N=C(N)COCC1(F)F` [Example 80, (R)-N-(3-(3-Amino-5-ethyl-6,6-difluoro-2,5,6,7-tetrahydro-1,4-oxazepin-5-yl)-4-fluorophenyl)-5-chloropyrimidine-2-carboxamide], in that order: 55.9 nM and 23 nM.
On the same counts, the results for `C[C@@]1(c2cc(NC(=O)c3ccc(OCC(F)(F)F)cn3)ccc2F)CCOCC(N)=N1` [Example 12, 5-(2,2,2-Trifluoro-ethoxy)-pyridine-2-carboxylic acid [3-((S)-3-amino-5-methyl-2,5,6,7-tetrahydro-[1,4]oxazepin-5-yl)-4-fluoro-phenyl]-amide] are 120 nM and 9 nM.
For `C[C@]1(c2cc(NC(=O)c3nn(CC(F)(F)F)cc3Cl)ccc2F)N=C(N)COCC1(F)F` [Example 106, (R)-N-(3-(3-Amino-6,6-difluoro-5-methyl-2,5,6,7-tetrahydro-1,4-oxazepin-5-yl)-4-fluorophenyl)-4-chloro-1-(2,2,2-trifluoroethyl)-1H-pyrazole-3-carboxamide], in that order: 2170 nM and 630 nM.
As to `CC1(C)C[C@@](C)(c2cc(NC(=O)c3ccc(OCC(F)(F)F)cn3)ccc2F)N=C(N)CO1` [Example 18, 5-(2,2,2-Trifluoro-ethoxy)-pyridine-2-carboxylic acid [3-((S)-3-amino-5,7,7-trimethyl-2,5,6,7-tetrahydro-[1,4]oxazepin-5-yl)-4-fluoro-phenyl]-amide], the IC50 in assay [1] worked out at 120 nM; in the assay with Aβ40, 22 nM.
Consider `COc1cnc(C(=O)Nc2ccc(F)c([C@@]3(C)N=C(N)COCC3(F)F)c2)cn1` [Example 109, (R)-N-(3-(3-Amino-6,6-difluoro-5-methyl-2,5,6,7-tetrahydro-1,4-oxazepin-5-yl)-4-fluorophenyl)-5-methoxypyrazine-2-carboxamide formate], for which the IC50 was 143 nM in assay [1] and 1.9 nM with Aβ40.
For `CC1(C)C[C@@](C)(c2cc(NC(=O)C3CC3(F)F)ccc2F)N=C(N)CO1` (stereo partly drawn) [Example 19, 2,2-Difluoro-cyclopropanecarboxylic acid [3-((S)-3-amino-5,7,7-trimethyl-2,5,6,7-tetrahydro-[1,4]oxazepin-5-yl)-4-fluoro-phenyl]-amide], in that order: 56 nM and 440 nM.
For `CC[C@]1(c2cc(NC(=O)c3n[nH]cc3Cl)ccc2F)N=C(N)COCC1(F)F` [Example 86, (R)-N-(3-(3-Amino-5-ethyl-6,6-difluoro-2,5,6,7-tetrahydro-1,4-oxazepin-5-yl)-4-fluorophenyl)-4-chloro-1H-pyrazole-3-carboxamide], in that order: 491 nM and 370 nM.
For `C[C@]1(c2cc(NC(=O)c3cnc(OCF)cn3)ccc2F)N=C(N)COCC1(F)F` [Example 103, (R)-N-(3-(3-Amino-6,6-difluoro-5-methyl-2,5,6,7-tetrahydro-1,4-oxazepin-5-yl)-4-fluorophenyl)-5-(fluoromethoxy)pyrazine-2-carboxamide formate], in that order: 307 nM and 2.9 nM.
For `CC[C@]1(c2cc(NC(=O)c3nn(C(F)F)cc3Cl)ccc2F)N=C(N)COCC1(F)F` [Example 116, (R)-N-(3-(3-Amino-5-ethyl-6,6-difluoro-2,5,6,7-tetrahydro-1,4-oxazepin-5-yl)-4-fluorophenyl)-4-chloro-1-(difluoromethyl)-1H-pyrazole-3-carboxamide], the half-inhibitory concentration (IC50) in assay [1] was found to be 189 nM; with Aβ40, 20 nM.
Take `CC[C@]1(c2cc(NC(=O)c3ccc(F)cn3)ccc2F)N=C(N)COCC1(F)F` [Example 78, (R)-N-(3-(3-Amino-5-ethyl-6,6-difluoro-2,5,6,7-tetrahydro-1,4-oxazepin-5-yl)-4-fluorophenyl)-5-fluoropicolinamide]: the IC50 was 74.3 nM in assay [1] and 60 nM with Aβ40.
On the same counts, the results for `Cc1ccc(C(=O)Nc2ccc(F)c([C@@]3(C)N=C(N)COCC3(F)F)c2)nc1` [Example 94, (R)-N-(3-(3-Amino-6,6-difluoro-5-methyl-2,5,6,7-tetrahydro-1,4-oxazepin-5-yl)-4-fluorophenyl)-5-methylpicolinamide formate] are 24.3 nM and 10 nM.
As to `C[C@]1(c2cc(NC(=O)c3cnc(OCCF)cn3)ccc2F)N=C(N)COCC1(F)F` [Example 71, (R)-N-(3-(3-Amino-6,6-difluoro-5-methyl-2,5,6,7-tetrahydro-1,4-oxazepin-5-yl)-4-fluorophenyl)-5-(2-fluoroethoxy)pyrazine-2-carboxamide formate], the IC50 worked out at 12400 nM in assay [1] and 1500 nM with Aβ40.
For `CC1(C)C[C@@](C)(c2cc(NC(=O)CC(F)(F)F)ccc2F)N=C(N)CO1` [Example 22, N-[3-((S)-3-Amino-5,7,7-trimethyl-2,5,6,7-tetrahydro-[1,4]oxazepin-5-yl)-4-fluoro-phenyl]-3,3,3-trifluoro-propionamide], in that order: 55 nM and 980 nM.
On the same counts, the results for `C[C@]1(c2cc(NC(=O)c3ncc(C(F)(F)F)cc3Cl)ccc2F)N=C(N)COCC1(F)F` [Example 25, 3-Chloro-5-trifluoromethyl-pyridine-2-carboxylic acid [3-((R)-3-amino-6,6-difluoro-5-methyl-2,5,6,7-tetrahydro-[1,4]oxazepin-5-yl)-4-fluoro-phenyl]-amide] are 51 nM and 7 nM.
For `C[C@]1(c2cc(NC(=O)c3ccc(C#N)cn3)ccc2F)N=C(N)COCC1(F)F` [Example 30, (R)-N-(3-(3-amino-6,6-difluoro-5-methyl-2,5,6,7-tetrahydro-1,4-oxazepin-5-yl)-4-fluorophenyl)-5-cyanopicolinamide formate], in that order: 43 nM and 2.1 nM.
As for `C[C@]1(c2cc(NC(=O)c3nsc(Cl)n3)ccc2F)N=C(N)COCC1(F)F` [Example 73, (R)-N-(3-(3-Amino-6,6-difluoro-5-methyl-2,5,6,7-tetrahydro-1,4-oxazepin-5-yl)-4-fluorophenyl)-5-chloro-1,2,4-thiadiazole-3-carboxamide formate], the IC50 turned out to be 6520 nM in assay [1] and 300 nM in the assay with Aβ40.
For `C[C@]1(c2cc(NC(=O)c3ccc(F)cn3)ccc2F)N=C(N)COC[C@@H]1F` [Example 62, N-(3-((5R,6R)-3-amino-6-fluoro-5-methyl-2,5,6,7-tetrahydro-1,4-oxazepin-5-yl)-4-fluorophenyl)-5-fluoropicolinamide], the IC50 in assay [1] came to 1 nM; in the assay on Aβ40 it was 1.8 nM.
With `Cc1nc(C(=O)Nc2ccc(F)c([C@@]3(C)N=C(N)COCC3(F)F)c2)c(C(F)(F)F)o1` [Example 113, (R)-N-(3-(3-Amino-6,6-difluoro-5-methyl-2,5,6,7-tetrahydro-1,4-oxazepin-5-yl)-4-fluorophenyl)-2-methyl-5-(trifluoromethyl)oxazole-4-carboxamide], the values for the IC50 (in assay [1]; in the assay with Aβ40) were 123 nM and 35.8 nM, respectively.
For `CCOC(=O)c1ccc(C(=O)Nc2ccc(F)c([C@@]3(C)N=C(N)COCC3(F)F)c2)nc1` [Example 58, (R)-ethyl 6-(3-(3-amino-6,6-difluoro-5-methyl-2,5,6,7-tetrahydro-1,4-oxazepin-5-yl)-4-fluorophenylcarbamoyl)nicotinate formate formate], in that order: 139 nM and 120 nM.
On the same counts, the results for `C[C@]1(c2cc(NC3CCCC3)ccc2F)N=C(N)COCC1(F)F` [Example 64, (R)-5-(5-(cyclopentylamino)-2-fluorophenyl)-6,6-difluoro-5-methyl-2,5,6,7-tetrahydro-1,4-oxazepin-3-amine] are 400 nM and 360 nM.
Take `CC[C@]1(c2cc(NC(=O)c3ncc(Cl)cc3Cl)ccc2F)N=C(N)COCC1(F)F` [Example 83, (R)-N-(3-(3-Amino-5-ethyl-6,6-difluoro-2,5,6,7-tetrahydro-1,4-oxazepin-5-yl)-4-fluorophenyl)-3,5-dichloropicolinamide]: the values for the IC50 (in assay [1]; in the assay on Aβ40) were 19.7 nM and 15 nM, respectively.
`C[C@]1(c2cc(NC(=O)c3csc(Cl)n3)ccc2F)N=C(N)COCC1(F)F` [Example 66, (R)-N-(3-(3-Amino-6,6-difluoro-5-methyl-2,5,6,7-tetrahydro-1,4-oxazepin-5-yl)-4-fluorophenyl)-2-chlorothiazole-4-carboxamide formate]: the IC50 was 54.4 nM in assay [1] and 15.3 nM in the assay on Aβ40.
